From publication PMC9822769, “The Strange Case: The Unsymmetric Cisplatin-Based Pt(IV) Prodrug [Pt(CH3COO)Cl2(NH3)2(OH)] Exhibits Higher Cytotoxic Activity with respect to Its Symmetric Congeners due to Carrier-Mediated Cellular Uptake” (Bioinorganic Chemistry and Applications, 2022) come the findings set out here.

In one data set the test system is A2780 cells. In words: Cellular Pt accumulation (accumulation ratio, ICP-MS) in A2780 cells. It counts as cell-based, human. Particulars: A2780, 4 h CT, 10 μM. The protocol: A2780 and A2780cisR cells were seeded in 10 mm Petri dishes and challenged with complexes under investigation (10 μM) in a complete medium for 4 h. At the end of the exposure, cells were washed three times with PBS, detached from Petri dishes using 0.05% trypsin 1x + 2% EDTA (HyClone, Thermo Fisher), and harvested in a completely fresh medium. An automatic cell counting device (Countess®, Life Technologies) was used to measure the number and mean diameter of each cell necessary to calculate the mean cellular (spherical) volume.
For the analysis of Pt accumulation, cells were transferred to a borosilicate glass tube and centrifuged at 1100 rpm for 5 min at room temperature. The supernatant was carefully removed by aspiration, while approximately, 200 μL of the supernatant was left to limit cell loss. Cellular pellets were stored at −80°C until mineralization.
The determination of the platinum content was performed by ICP-MS (Thermo Optek X Series 2). Mineralization was carried out by adding 70% w/w HNO3 to each sample (after defrosting), followed by incubation for 1 h at 60°C in an ultrasonic bath. Before the ICP-MS measurement, HNO3 was diluted to a final concentration of 1%. The instrument settings were optimized to produce the highest platinum sensitivity, and the most abundant isotopes of Pt and In (used as an internal standard) were quantified at m/z 195 and 115, respectively.
The quantity of Pt found in cells and normalized on cell number (cellular Pt accumulation) was expressed as ng of Pt per 10^6 cells. The mean cellular volume, calculated from the actual mean cell diameter measured for each sample (about 12 μm), was used to obtain the volume of 10^6 cells and, finally, the intracellular Pt concentration. At treatment time zero, 100 μL of the medium was taken from each sample to verify the extracellular Pt concentration. The ratio between intracellular and the actual extracellular concentrations is defined as the accumulation ratio, AR [70]. The Pt content in the control experiment, which characterizes any possible Pt contamination during the overall process, was statistically insignificant with respect to the cellular Pt accumulated during treatment, even in the case of A2780cisR.
Experiments with the inhibitors were carried out at 37°C as follows: (i) NaN3 + 2-deoxy-D-glucose (2DG): preincubation for 30 min in PBS with 25 mM NaN3 and 25 mM 2DG, followed by a 10 μM CT with the Pt compounds in Earle's Balanced Salt Solution (EBSS) for 1 h; (ii) cimetidine (CMT): coincubation with 1.5 mM CMT and 10 μM Pt compounds in EBSS for 1 h; (iii) 1-methyl-4-phenylpyridin-1-ium (MPP^+): coincubation with 2.0 mM MPP^+ and 10 μM Pt compounds in EBSS for 1 h; (iv) cytochalasin D (CTD): preincubation for 30 min in EBSS with 10 μM CTD, followed by a 10 μM CT with the Pt compounds in EBSS for 1 h; (v) O-benzylserine (BS): coincubation with 1.0 mM BS and 10 μM Pt compounds in EBSS for 4 h; (vi) ouabain (OUA): preincubation for 1 h in EBSS with 1 mM OUA, followed by a 10 μM CT with the Pt compounds in EBSS for 4 h; (vii) tetraethylammonium chloride (TEA): preincubation for 1 h with 2.0 mM TEA followed by 10 μM Pt compounds in EBSS for 4 h. In the experiments at low temperature, A2780 cells were preincubated for 2 h at 4°C, followed by CT with each Pt compound (10 μM) for 4 h. In all cases, at the end of the CT, the cells were manipulated as described in the previous paragraphs.

Data set [1] in a line: RP-HPLC lipophilicity (log k′) on C18 column. It counts as physicochemical. Particulars: 30% methanol/70% aqueous 15 mM formic acid. On the procedure: Retention times, tR, were measured on two columns: (i) a standard C18 column (Phenomenex Phenosphere-NEXT, 250 × 4.6 mm, 5 μm) and (ii) an IAM.PC.DD.2 column (Regis, 10 cm × […], 10 μm packing 300 Å pore size), prepared by covalently bonding cell-membrane-forming phospholipids to silica. On (i), a chromatogram was performed for each complex (0.25 mM) in a fixed eluent composition (30% methanol/70% aqueous 15 mM formic acid; flow rate 0.5 mL·min^−1) using a Waters HPLC-MS instrument (equipped with an Alliance 2695 separation module, a 2487 dual lambda absorbance detector, and a 3100 mass detector). The UV-vis detector was set at 210 nm. In (ii), the mobile phase consisted of 20 mM ammonium acetate buffer at pH 6.9 and acetonitrile flowing at 1 mL·min^−1. The samples were dissolved in the mobile phase in a concentration range of 50–100 μg·mL^−1. An HPLC Varian ProStar instrument equipped with a 410 autosampler, a PDA 335 LC detector, and Galaxie Chromatography Data System Version 1.9.302.952 was used.
The different tRs were used to calculate log k′, which is the logarithm of the retention factor k′ = (tR − t0)/t0, where t0 is the column dead time (i.e., the tR of KCl or citric acid used as the internal reference for (i) and (ii), respectively).
The lipophilicity of a compound is commonly described by the octanol-water partition coefficient, log Po/w, which can be defined as the ratio of the concentration of the compound between the organic (n-octanol) and the aqueous phase. However, other faster methods, such as RP-HPLC, have often been used to evaluate lipophilicity instead of the shake-flask method. […] Therefore, the retention times (tR) of the complexes were determined on a C18 column using a 70/30 (% v/v) water/MeOH mixture as an eluent, and the data were expressed as log k′ (k′ = (tR − t0)/t0, where t0 is the column dead time of the column). The trend of the measured log k' was 3 > 2 > cisplatin > 1, as expected based on the structure of the complexes, the acetato ligand being more lipophilic than the hydroxido one (Table 1).

On to `N.N.[Cl][Pt][Cl]` [Cisplatin, (SP-4-2)-diamminedichloridoplatinum(II)], for which the “ratio between AR 37°C and AR 4°C” value in the data set with A2780 cells was “increases hugely”.
On to `N.N.[OH][Pt]([OH])([Cl])[Cl]` [Complex 1, (OC-6-33)-diamminedichloridodihydroxidoplatinum(IV)], for which the “Log k′” value in data set [1] is −1.50. In addition, the “ratio between AR 37°C and AR 4°C” value with A2780 cells amounted to 3.2.
On to `CC(=O)[O][Pt]([OH])([Cl])[Cl].N.N` [Complex 2, (OC-6-44)-acetatodiamminedichloridohydroxidoplatinum(IV)], for which the “Log k′” value in data set [1] was −1.10. The “ratio between AR 37°C and AR 4°C” value in the data set on A2780 cells is “increases hugely”. Also, in the data set with A2780 cells (37°C), the “accumulation ratio (AR)” value is “higher AR at 4 h than 1 and 3, even higher than that of cisplatin”.
As for `CC(=O)[O][Pt]([NH2])([NH2])([Cl])([Cl])[O]C(C)=O` [Complex 3, (OC-6-33)-diamminedichloridodiacetatoplatinum(IV)], the “Log k′” value in data set [1] is on record as −0.84. For the same molecule, the “ratio between AR 37°C and AR 4°C” value in the data set on A2780 cells is 3.6.
